Laboratory results: ChEMBL document CHEMBL3638875, “Pyrazol-4-yl-heterocyclyl-carboxamide compounds and methods of use” (2014)

Assays:
[1] = target: Serine/threonine-protein kinase pim-3 (Homo sapiens, UniProt Q86V86); test: (§1) Binding Assay: PIM-1, -2, and -3 enzymes were generated as fusion proteins expressed in bacteria and purified by IMAC column chromatography (Sun, X., Chiu, J. F., and He, Q. Y. (2005) Expert Rev. Proteomics, 2:649-657). A fluorescent-labeled Pim-specific peptide substrate, was custom synthesized by American Peptide Company (Sunnyvale, Calif.). Reaction Buffer contained 10 mM HEPES, pH 7.2, 10 mM MgCl2, 0.01% Tween 20, 2 mM DTT. Termination Buffer contained 190 mM HEPES, pH 7.2, 0.015% Brij-35, 0.2% Coating Reagent 3 (Caliper Life Sciences, Hopkinton, Mass.), 20 mM EDTA. Separation Buffer contained 100 mM HEPES, pH 7.2, 0.015% Brij-35, 0.1% Coating Reagent 3, 1:200 Coating Reagent 8 (Caliper Life Sciences, Hopkinton, Mass.), 10 mM EDTA and 5% DMSO.
[2] = target: Serine/threonine-protein kinase pim-2 (Homo sapiens, UniProt Q9P1W9); test: as §1, with “A” for “Binding Assay: PIM-1, -2, and -3 enzymes were generated as fusion proteins expressed in bacteria and purified by IMAC column chromatography (Sun, X., Chiu, J. F., and He, Q. Y. (2005) Expert Rev. Proteomics, 2:649-657). A”
Serine/threonine-protein kinase pim-2, sequence (Q9P1W9 whole entry, the tested form may be a part): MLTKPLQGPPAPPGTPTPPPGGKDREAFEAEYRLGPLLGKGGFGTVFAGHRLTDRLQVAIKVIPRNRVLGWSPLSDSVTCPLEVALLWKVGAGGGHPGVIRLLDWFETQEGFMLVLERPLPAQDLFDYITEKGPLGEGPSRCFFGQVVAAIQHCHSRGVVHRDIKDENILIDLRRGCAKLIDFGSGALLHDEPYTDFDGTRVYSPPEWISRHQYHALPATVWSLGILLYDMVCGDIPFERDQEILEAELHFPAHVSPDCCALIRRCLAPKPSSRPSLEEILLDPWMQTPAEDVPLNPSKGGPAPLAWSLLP

## Cn1ncc(NC(=O)c2nc(Br)cnc2N)c1N1CCC[C@H](N)C1
[1]
  Ki: 68.1 nM
[2]
  Ki: 154 nM
